Drawing on patent US5047520A, “2'-alkylidenepyrimidine nucleoside derivatives, process for production thereof, and uses thereof” (Yamasa Shoyu Kabushiki Kaisha, priority 1987, dated 1991), this text covers MIC for six compounds.

Assay [1] deals with HSV type 1 (HSV-1) strain VR-3. Briefly: anti-HSV activity: inhibition of cytopathic effect (CPE), HSV-1. The note with it: Human alphaherpesvirus 1; HSV-1 strain VR-3, 100-320 TCID50; human embryonic lung cells; 37° C., 2 to 3 days; read-out: MIC HSV-1 (minimum concentration at which the CPE is inhibited at least by 50%). It counts as cell-based. How it is done: (§1) A. Human embryonic lung cells are subcultivated in Eagle's MEM supplemented with 10% semi-fetal calf serum.
(§2) B. The cells thus subcultivated are used as a parent culture. A cell suspension obtained from the parent culture by dividing it at 1:2 split is seeded into 96 microwells in an amount of 150 μl/well and incubated in a CO2 -incubator at 37° C. for 4 to 5 days.
(§3) C. The culture field is discarded, and 100- to 320-50% tissue culture infective doses (100-320 TCID50) of HSV type 1 (HSV-1) strain VR-3 or HSV type 2 (HSV-2) strain MS is inoculated. After incubation at 37° C. for 1 hour, the virus fluid is discarded, 150 μl of Eagle's MEM supplemented with 2.5% semi-fetal calf serum and containing an appropriate amount of each test compound is added, and cultivation is carried out at 37° C. Each of the test compounds is usually diluted in the range of from 100 to 1 μg/ml by serial 0.5 log10 decrements.
(§4) D. After cultivation for 2 to 3 days, the degree of the cytopathic effect (CPE) caused by the viral infection in each of the wells is observed microscopically. At the time when the control cultures, in which the test compound is absent, have shown complete CPE by the viral infection, the degree of CPE in each well is rated from 0 to 4.
(§5) E. The minimum concentration at which the CPE is inhibited at least by 50% (indicated by the CPE score not exceeding 2) is defined as the minimum inhibitory concentration (MIC) of the test compound.
A general note: Damage to the host cells serves as the signal in cytopathic effect assays.

Another assay has as its system CMV strain AD 169. Briefly: anti-CMV activity: inhibition of plaque formation. The note with it: Human betaherpesvirus 5; CMV strain AD 169, about 50 plaque forming units; human embryonic lung cells; 37° C., 4 to 6 days; read-out: MIC CMV (minimum concentration at which the plaque formation is inhibited at least by 50%). Format: cell-based, cytomegalovirus (CMV). On the procedure:
as §1
B. The cells thus subcultivated are used as a parent culture. A cell suspension obtained from the parent culture by dividing it at 1:2 split is seeded into 24 semi-microwells in an amount of 150 μl/well and incubated in a CO2 -incubator at 37° C. for 4 to 5 days.
C. The culture fluid is discarded, and about 50 plaque forming units of CMV strain AD 169 is inoculated. After incubation at 37° C. for 1 hour, 400 μl of Eagle's MEM supplemented with 2.5% semi-fetal calf serum and containing an appropriate amount of each test compound is added, and cultivation is carried out at 37° C. Each of the test compounds is usually diluted in the range of from 100 to 1 μg/ml by serial 0.5 log10 decrements.
D. After cultivation for 4 to 6 days, infected cells are stained with a 0.5% Crystal Violet solution, and the number of plaques formed is counted under the microscope.
E. The minimum concentration at which the plaque formation is inhibited at least by 50%, based on the number of plaques formed in the control cultures in which the test compound is absent, is defined as the minimum inhibitory concentration (MIC) of the test compound.

For assay [2], the system named is HSV type 2 (HSV-2) strain MS. Description: anti-HSV activity: inhibition of cytopathic effect (CPE), HSV-2. It counts as cell-based. To be noted: Human alphaherpesvirus 2, 100-320 TCID50, human embryonic lung cells, 37° C., 2 to 3 days, read-out: MIC HSV-2 (minimum concentration at which the CPE is inhibited at least by 50%). On the procedure: as §1, §2, §3, §4, §5

≈ marks a conversion by molar mass, not a printed value.

Take `C=C1[C@H](n2ccc(N)nc2=O)O[C@H](CO)[C@H]1O` [NH2 H H H, 2'-methylidene-2'-deoxycytidine]: the MIC worked out at 1 µg/mL (≈ 4.18 µM) in assay [1], 0.1 µg/mL (≈ 0.418 µM) with CMV strain AD 169 and 1 µg/mL (≈ 4.18 µM) in assay [2].
On to `C=C1[C@H](n2cc(Br)c(=O)[nH]c2=O)O[C@H](CO)[C@H]1O` [OH Br H H, 2'-methylidene-2'-deoxy-5-bromouridine], for which the MIC in assay [1] and in assay [2] was 3.2 µg/mL (≈ 10 µM) throughout.
On to `CC=C1[C@H](n2cc(C)c(=O)[nH]c2=O)O[C@H](CO)[C@H]1O` [OH CH3 CH3 H, 2'-ethylidenethymidine], for which the MIC in assay [1] is 10 µg/mL (≈ 37.3 µM); in assay [2] it was 32 µg/mL (≈ 119 µM).
`C=C1[C@H](n2cc(C)c(=O)[nH]c2=O)O[C@H](CO)[C@H]1O` [OH CH3 H H, 2'-methylidenethymidine]: the MIC came to 1 µg/mL (≈ 3.93 µM) in assay [1], 5.6 µg/mL (≈ 22 µM) with CMV strain AD 169 and 1 µg/mL (≈ 3.93 µM) in assay [2].
Turning to `C=C1[C@H](n2cc(Cl)c(=O)[nH]c2=O)O[C@H](CO)[C@H]1O` [OH Cl H H, 2'-methylidene-2'-deoxy-5-chlorouridine], the MIC in assay [1] and in assay [2] was 10 µg/mL (≈ 36.4 µM) in each case.
In the case of `C=C1[C@H](n2cc(I)c(=O)[nH]c2=O)O[C@H](CO)[C@H]1O` [OH I H H, 2'-methylidene-2'-deoxy-5-iodouridine], the MIC in assay [1] and in assay [2] was 1 µg/mL (≈ 2.73 µM) throughout.
